Source: patent US20200064357A1, “METHODS FOR DETERMINING AND MONITORING GASTROINTESTINAL INFLAMMATION” (Protagonist Therapeutics, Inc., priority 2016, published 2020)

Key:
Assay type in all cases: in vivo
Sprague-Dawley rats [1] = assay: Distal colon markers in TNBS-induced rat colitis: MPO, IL-17A, IL-22 by ELISA, pStat3 by IHC (Example E4)
Procedure: In the first model, acute colitis was induced in Sprague-Dawley rats by a single intra-rectal instillation of TNBS followed by efficacy analysis at day seven. The animals were grouped into sham+vehicle (PO TID), TNBS+vehicle (PO TID), anti-IL23p19 antibody (4 mg/kg/day IP, Day −1 and Day 3), and Peptide 993 treatment at 9, 28, or 61 mg/kg/day (PO TID+in drinking water). Sham indicates animals not treated with TNBS.
In addition, myeloperoxidase (MPO), IL-17A, and IL-22 detected from sampled tissue were quantified by enzyme-linked immunosorbent assay (ELISA), and the results are shown in FIGS. 10A-10C. The percentage of phosphorylated Signal Transducer and Activator of Transcription 3 (Stat3) was normalized to the area of the distal colon quantified by immuno-histochemistry (IHC) (FIG. 10D), and the micrographs shown in FIG. 10E are representative images from each indicated group for IHC analysis of pStat3 expression. Values shown as mean±SD. Statistical significance was assessed by One-way ANOVA with post-hoc Dunnett's vs. Vehicle control: *p≤0.05; **p≤0.01; ***p≤0.001; ****p≤0.0001; ns, not significant.
For the pSTAT3 assays, colon tissue samples were processed routinely, sectioned at approximately 3-5 microns, fixed in 10% neutral buffered formaldehyde, processed in paraffin, and immunolabeled with an anti-pSTAT3 primary antibody that binds STAT3 phosphorylated at Tyrosine 705 (Abcam, Cat. No. ab76315 PUR). pSTAT3 immunolabel as a percentage of total areas was measured using Visiopharm© image analysis software. Image analysis involved outlining the colon tissue as a region of interest (ROI), then an automated thresholding method was utilized for the classification of the pSTAT3 positive immunolabel. After classification, the total tissue area within the ROI was calculated, along with the count of pSTAT3 positive cells and the area (in microns) of the pSTAT3 positive cells. Lastly, the pSTAT3 immunolabel percentage of the total tissue area was calculated.
The details of the pSTAT3 Image Analysis Protocol were as follows:
1. ROI • a. Tissue was outlined, and non-colon tissues were excluded.
2. Pre-processing • a. Image was converted into grayscale-pixel values processed to be 0-255 • b. Grayscale image was filtered into two channels: • i. The DAB (or pSTAT3 positive) channel with pixels associated with the brown DAB staining; and • ii. The hematoxylin channel with pixels associated with the tissue area not stained with DAB (includes all tissue area and background staining).
3. Analysis & Classification • a. Algorithm using a “threshold” method was used to classify the tissue area within the ROI. • i. Threshold of the DAB channel was set to classify the positive pSTAT3 stained cells as any/all pixels (from the DAB channel of the pre-processed image) with values between 0-135. A green label was applied to these positively classified cells. • 1. Pixels with values outside the threshold of 0-135 were considered to be part of the tissue area (within the ROI). • b. […]
4. […] The total tissue area (within the ROI) was calculated-unit was in microns. • b. The total pSTAT3 positive area was calculated-unit is in microns. • c. The “count” of pSTAT3 positive cells was calculated. • d. The fraction of pSTAT3 positive cells was calculated by dividing the pSTAT3 positive area by the total tissue area-unit was in microns. • e. The nuclear density per square millimeter was calculated, simply to change the units from microns to square millimeter.

Sprague-Dawley rats [2] = assay: CLDN8 gene expression and colonic score in TNBS-induced rat colitis (Example E5)
Procedure: The claudin family of proteins are components of the tight junction complex. Through expression analysis and colonic scoring, claudins were analyzed as biomarkers for IBD disease severity. […] CLDN8 gene expression was analyzed in a TNBS-induced rat model of […] following the protocols described in Example E1.

Sprague-Dawley rats [3] = assay: Biomarker gene expression in distal colon, TNBS rat colitis model, quantitative real time PCR (Example E3); conditions: 31 mg/kg/day, normalized to HPRT1, vs vehicle group
Procedure: (§1) Animals from the sham group (without TNBS exposure), the vehicle group (exposed to TNBS and treated with vehicle only) and the group treated with Peptide 993 (exposed to TNBS and treated with Peptide 993 at 31 mg/kg/day) were subjected for gene expression and miroRNA analysis
For extraction of total RNA from the distal colons, tissue samples stored at −20° C. in the buffer RNAlater, were thawed and homogenized in RLTplus Buffer (Qiagen) at 20× volume:wt, then subsequently purified using the RNeasy Plus Mini Kit (Qiagen). The concentration of the total RNA was measured and the quality of the RNAs was verified on a gel. The total RNA was used in QuantiTect Reverse Transcription Kit (Qiagen) to obtain cDNA templates for the quantative real time PCR. The expression of the genes LCN2 (Lipocalin 2), S100A8 (a subunit of calprotectin) and CLDN8 (Claudin 8 of the claudin family of tight junction proteins) were measured using Taqman and TaqMan Fast Advanced Master Mix (Applied Biosystems). The threshold cycle number (Ct) values, that are indicative of abundance of template, were normalized using the endogenous control gene HPRT1. The Relative expression of each gene was calculated using the normalized Ct values. Statistical analysis of relative expression was performed using One-way ANOVA method (with Dunnett's multiple comparisons) to compare the variations Vs Group 2.

Sprague-Dawley rats [4] = assay: miR-223-3p expression in distal colon and serum, TNBS rat colitis model (Example E3); conditions: 31 mg/kg/day, vs vehicle group
Procedure: as §1
For extraction of microRNA from distal colon homogenate, the RNeasy Plus Mini Kit and the RNeasy MinElute Cleanup Kit (Qiagen) were used. For extraction of microRNA from serum, miRNeasy Serum/Plasma Kit (Qiagen) was used. To verify uniformity of microRNA extraction, a synthetic microRNA cel-miR-39-3p, at a fixed concentration, was spiked into both distal colon homogenates and serum samples. The microRNAs purified from distal colon and serum was used in the Advanced miRNA cDNA Synthesis Kit (Applied Biosystems) to obtain cDNA templates for the quantative real time PCR. The expression of miR-223-3p, a microRNA known to negatively regulate CLDN8 gene expression, was measured using TaqMan Advanced miRNA assay (Applied Biosystems). The endogenous control miR-16-5p was used for normalization in the distal colon, and the endogenous control miR-24-3p was used for normalization in the serum. Relative expression of miR-223-3p was calculated using the normalized Ct values. […]

[5] = TNBS rats, oral treatment, ELISA

Q: How did the “disease-related and IL-23-directed markers in the distal colons (MPO, IL-17A, IL-22, pStat3)” value (Sprague-Dawley rats [1]; TNBS rats, 9, 28 or 61 mg/kg/day oral, vs vehicle) turn out when `CC(=O)NC(CCCNC(=N)N)C(=O)NC1CCSCC(C(=O)NC(Cc2ccc(OCCN)cc2)C(=O)NC(Cc2ccc3ccccc3c2)C(=O)NC2(C(=O)NC(CCC(=O)O)C(=O)NC(CC(N)=O)C(=O)NC(CC(N)=O)C(N)=O)CCOCC2)NC(=O)C(CCC(N)=O)NC(=O)C(Cc2c[nH]c3ccccc23)NC(=O)C(C(C)O)NC(=O)C(CCC(N)=O)NC1=O` (stereo not drawn) [Peptide 993, Ac-[(D)-Arg]-cyclo[[Abu]-QTWQC]-[Phe[4-(2-aminoethoxy)]]-[2-Nal]-[4-amino-4-carboxy-tetrahydropyran]-ENN-NH2] was run?
A: significant and dose-dependent reduction

Q: What about the “colonic levels of MPO” value (Sprague-Dawley rats [1]; [5]) of the same compound?
A: decreased

Q: What about the “levels of IL-17A, distal colon” value (Sprague-Dawley rats [1]; [5]) of the same compound?
A: significantly reduced

Q: What about the “levels of IL-22, distal colon” value (Sprague-Dawley rats [1]; [5]) of the same compound?
A: significantly reduced

Q: And the “levels of pStat3, distal colon” value (Sprague-Dawley rats [1]; TNBS rats, oral treatment, IHC, percentage of area)?
A: restored to control levels

Q: What about the “levels of CLDN8 expression, distal colon” value (Sprague-Dawley rats [2]; vs vehicle control-treated) of the same compound?
A: restored levels of CLDN8 expression above vehicle control-treated subjects

Q: What about the “colonic score (0-12)” value (Sprague-Dawley rats [2]; vs vehicle treated animals) of the same compound?
A: reduced

Q: What about the “S100A8 expression, distal colon” value (Sprague-Dawley rats [3]) of the same compound?
A: not statistically significant, however there was a marked reduction in the average expression of the group

Q: What about the “relative expression of CLDN8, distal colon” value (Sprague-Dawley rats [3]) of the same compound?
A: increase

Q: And the “relative expression of LCN2, distal colon” value (Sprague-Dawley rats [3])?
A: significant reduction

Q: And the “miR-223-3p expression in the distal colon” value (Sprague-Dawley rats [4]; normalized to miR-16-5p)?
A: not statistically significant, however there was a marked reduction in the average expression of the group

Q: And the “miR-223-3p expression in serum” value (Sprague-Dawley rats [4]; normalized to miR-24-3p)?
A: no apparent change
